The source of these data is US20120225777A1, “Azolylmethyloxiranes, Their Use for Controlling Phytopathogenic Fungi and Compositions Comprising Them” (BASF SE, priority 2006, published 2012).

For test [1], the system named is Pyrenophora [syn. Drechslera] teres. Briefly: Activity against net blotch of barley caused by Pyrenophora teres, 1 day protective application (Pymte P1), greenhouse. It counts as in vivo, Pyrenophora teres on barley. The following applies: Comparative Example 2, Table 10, barley seedlings, 6 days, untreated 90. Here is the method: (§1) The active compounds were prepared separately or jointly as a stock solution comprising 25 mg of active compound which was made up to 10 ml using a mixture of acetone and/or DMSO and the emulsifier Wettol EM 31 (wetting agent having emulsifying and dispersing action based on ethoxylated alkylphenols) in a volume ratio of solvent/emulsifier of 99:1. The mixture was then made up to 100 ml with water. This stock solution was diluted with the solvent/emulsifier/water mixture described to give the concentration of active compounds stated below.
Leaves of potted barley seedlings were sprayed to runoff point with an aqueous suspension having the active compound concentration stated below. 24 hours after the spray coating had dried on, the test plants were inoculated with an aqueous spore suspension of Pyrenophora [syn. Drechslera] teres, the net blotch pathogen. The test plants were then placed in a greenhouse at temperatures between 20 and 24° C. and at 95 to 100% relative atmospheric humidity. After 6 days, the extent of the development of the disease was determined visually in % infection of the entire leaf area.

The test system of test [2] is Sphaerotheca fuliginea. The test is described as follows: Activity against mildew on cucumber leaves caused by Sphaerotheca fuliginea, protective application (Sphrfu P1), greenhouse. It counts as in vivo. The following applies: Comparative Example 1, Table 9, cucumber seedlings, 7 days, untreated 90. The protocol:
as §1
Leaves of potted cucumber seedlings were, at the cotyledon stage, sprayed to runoff point with an aqueous suspension having the active compound concentration stated below. 20 hours after the spray coating had dried on, the plants were inoculated with an aqueous spore suspension of mildew of cucumber (Sphaerotheca fuliginea). The plants were then cultivated in a greenhouse at temperatures between 20 and 24° C. and 60 to 80% relative atmospheric humidity for 7 days. The extent of the mildew development was then determined visually in % infection of the cotyledon area.

Turning to `Fc1cc(F)c([C@@]2(Cn3cncn3)O[C@@H]2c2ccccc2Cl)cc1F` (racemic) [Compound 8.6], the “Infection in % at 4 ppm for Pyrnte P1” value in test [1] is recorded as 40%.
Consider `Cc1ccccc1[C@H]1O[C@]1(Cn1cncn1)c1cc(F)c(F)cc1F` (racemic) [Compound 8.7], for which the “Infection in % at 63 ppm for Sphrfu P1” value in test [2] is 0%.
For `Cc1ccccc1[C@H]1O[C@]1(Cn1cncn1)c1ccc(F)cc1F` [B 255 from EP-A 0 421 125], the “Infection in % at 63 ppm for Sphrfu P1” value in test [2] turned out to be 90%.
Consider `Fc1ccc([C@@]2(Cn3cncn3)O[C@@H]2c2ccccc2Cl)cc1` [Comp. 8 of EP-A 0 196 038], for which, in test [1], the “Infection in % at 4 ppm for Pyrnte P1” value was 90%.
